Laboratory results as given in US8546414B2, “Ion channel modulators and methods of use” (Vertex Pharmaceuticals Incorporated, priority 2004, dated 2013).
Like-named read-outs stand apart in the source and are kept apart here.

Legend:
[1] = neuropathic pain; cited from earlier work
[2] = biological target: T1, NaV1.3 (Homo sapiens, UniProt Q9NY46); conditions: read-out: TTX IC50; cited from earlier work
T1 construct: expressed in transfected cells; host or cells: HEK293

[3] = biological target: NaV1.6 (Homo sapiens, UniProt Q9UQD0); conditions: read-out: TTX IC50; cited from earlier work
[4] = biological target: T2, NaV1.8 (Homo sapiens, UniProt Q9Y5Y9); conditions: read-out: TTX IC50; cited from earlier work
Target sequence in this assay (Q9Y5Y9 whole entry, looked up): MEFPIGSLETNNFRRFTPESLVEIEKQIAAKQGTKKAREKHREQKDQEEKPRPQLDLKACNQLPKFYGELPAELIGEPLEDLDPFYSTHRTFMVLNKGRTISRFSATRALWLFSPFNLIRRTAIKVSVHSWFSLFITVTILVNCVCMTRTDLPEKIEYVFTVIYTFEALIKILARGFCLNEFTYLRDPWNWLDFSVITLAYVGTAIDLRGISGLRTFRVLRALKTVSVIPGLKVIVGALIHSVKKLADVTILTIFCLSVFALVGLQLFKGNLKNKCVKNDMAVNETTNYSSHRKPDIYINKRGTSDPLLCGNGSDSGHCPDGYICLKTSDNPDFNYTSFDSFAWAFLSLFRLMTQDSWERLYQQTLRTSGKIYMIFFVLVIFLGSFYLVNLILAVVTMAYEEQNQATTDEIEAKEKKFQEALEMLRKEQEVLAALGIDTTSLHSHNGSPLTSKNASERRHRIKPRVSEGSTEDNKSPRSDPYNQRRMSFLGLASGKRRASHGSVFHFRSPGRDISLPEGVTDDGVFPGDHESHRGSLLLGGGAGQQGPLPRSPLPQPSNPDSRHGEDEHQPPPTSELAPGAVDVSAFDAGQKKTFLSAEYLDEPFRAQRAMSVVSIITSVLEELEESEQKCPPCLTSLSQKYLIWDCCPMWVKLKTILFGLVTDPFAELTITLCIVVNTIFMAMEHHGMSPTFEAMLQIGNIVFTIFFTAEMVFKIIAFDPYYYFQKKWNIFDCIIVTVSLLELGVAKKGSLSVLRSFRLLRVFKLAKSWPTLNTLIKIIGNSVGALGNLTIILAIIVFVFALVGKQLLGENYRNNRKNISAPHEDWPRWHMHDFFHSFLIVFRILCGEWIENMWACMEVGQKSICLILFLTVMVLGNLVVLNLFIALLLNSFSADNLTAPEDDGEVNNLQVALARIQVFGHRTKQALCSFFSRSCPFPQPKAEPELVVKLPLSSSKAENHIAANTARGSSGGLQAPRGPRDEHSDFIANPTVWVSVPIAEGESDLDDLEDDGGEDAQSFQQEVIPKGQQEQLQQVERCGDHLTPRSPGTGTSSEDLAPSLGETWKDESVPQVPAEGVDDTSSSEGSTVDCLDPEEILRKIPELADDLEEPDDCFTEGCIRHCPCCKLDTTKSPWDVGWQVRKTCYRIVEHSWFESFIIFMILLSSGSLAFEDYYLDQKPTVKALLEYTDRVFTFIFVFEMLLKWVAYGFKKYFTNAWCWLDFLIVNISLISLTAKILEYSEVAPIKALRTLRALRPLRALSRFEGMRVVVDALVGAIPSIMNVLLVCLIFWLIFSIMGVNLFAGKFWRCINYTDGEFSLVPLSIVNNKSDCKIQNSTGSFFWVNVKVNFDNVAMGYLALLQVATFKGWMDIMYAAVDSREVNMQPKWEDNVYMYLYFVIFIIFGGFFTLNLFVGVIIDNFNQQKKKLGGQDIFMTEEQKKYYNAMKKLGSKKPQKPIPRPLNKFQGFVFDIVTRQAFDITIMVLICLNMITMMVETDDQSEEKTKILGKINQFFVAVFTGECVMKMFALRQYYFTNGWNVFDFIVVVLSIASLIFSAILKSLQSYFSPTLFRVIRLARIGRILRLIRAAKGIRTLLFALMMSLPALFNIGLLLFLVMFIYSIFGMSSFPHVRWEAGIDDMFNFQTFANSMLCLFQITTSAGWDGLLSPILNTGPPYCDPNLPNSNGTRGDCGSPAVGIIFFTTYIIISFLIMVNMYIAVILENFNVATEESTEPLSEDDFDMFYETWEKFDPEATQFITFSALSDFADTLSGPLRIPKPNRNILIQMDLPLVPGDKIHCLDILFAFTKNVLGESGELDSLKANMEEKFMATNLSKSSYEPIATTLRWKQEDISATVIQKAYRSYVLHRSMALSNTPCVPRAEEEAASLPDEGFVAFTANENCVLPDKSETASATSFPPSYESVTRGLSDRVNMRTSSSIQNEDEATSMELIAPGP

[5] = biological target: NaV1.9 (Homo sapiens, UniProt Q9UI33); conditions: read-out: TTX IC50; cited from earlier work
[6] = biological target: NaV1.1 (Homo sapiens, UniProt P35498); conditions: read-out: TTX IC50; cited from earlier work
[7] = biological target: NaV1.2 (Homo sapiens, UniProt Q99250); conditions: read-out: TTX IC50; cited from earlier work
[8] = biological target: T3, CaV2.2 (Homo sapiens, UniProt Q00975); assay: VIPR optical membrane potential assay with electrical stimulation, CaV2.2; type: cell-based; conditions: Table 9, CaV 2.2 receptors
T3 construct: expressed in transfected cells; host or cells: HEK293
Method in brief: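 HEK293 cells stably expressing CaV2.2 stained with CC2-DMPE/DiSBAC2(3) voltage-sensitive dyes (10 μM final CC2-DMPE, 30 min, RT), then compound added and cells electrically stimulated for 3-5 s. Read-out: background-subtracted 460/580 nm emission ratio; response R=Rf/Ri (post- vs pre-stimulus ratio); antagonism seen as reduced response.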

[9] = biological target: T1, NaV1.3; assay: VIPR optical membrane potential assay with electrical stimulation, NaV1.3; type: cell-based; conditions: Table 9, NaV 1.3 receptors
Method in brief: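 HEK293 cells stably expressing NaV1.3, stained with CC2-DMPE (10 μM final) then DiSBAC2(3) with ABSC1, 30 min each at RT; compounds added with oxonol. Electrical stimulation for 3 s; 460/580 nm background-subtracted emission ratio Rf/Ri, normalised to tetracaine (positive) and untreated (negative) controls.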

[10] = biological target: T2, NaV1.8; assay: VIPR optical membrane potential assay, NaV1.8 (other subtypes in an analogous mode); type: cell-based; conditions: Table 9, NaV 1.8 receptors
Method in brief: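 Cells expressing the NaV subtype stained with coumarin and DiSBAC2(3) membrane-potential dyes, then incubated with test compound for 20-30 minutes. Depolarization evoked by sodium addback and read optically on VIPR; block measured as reduced membrane-potential response, with tetracaine as positive control.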
Target sequence in this assay (Q9Y5Y9 whole entry): as the sequence (Q9Y5Y9 whole entry, looked up) above

T1 sequence (Q9NY46 whole entry): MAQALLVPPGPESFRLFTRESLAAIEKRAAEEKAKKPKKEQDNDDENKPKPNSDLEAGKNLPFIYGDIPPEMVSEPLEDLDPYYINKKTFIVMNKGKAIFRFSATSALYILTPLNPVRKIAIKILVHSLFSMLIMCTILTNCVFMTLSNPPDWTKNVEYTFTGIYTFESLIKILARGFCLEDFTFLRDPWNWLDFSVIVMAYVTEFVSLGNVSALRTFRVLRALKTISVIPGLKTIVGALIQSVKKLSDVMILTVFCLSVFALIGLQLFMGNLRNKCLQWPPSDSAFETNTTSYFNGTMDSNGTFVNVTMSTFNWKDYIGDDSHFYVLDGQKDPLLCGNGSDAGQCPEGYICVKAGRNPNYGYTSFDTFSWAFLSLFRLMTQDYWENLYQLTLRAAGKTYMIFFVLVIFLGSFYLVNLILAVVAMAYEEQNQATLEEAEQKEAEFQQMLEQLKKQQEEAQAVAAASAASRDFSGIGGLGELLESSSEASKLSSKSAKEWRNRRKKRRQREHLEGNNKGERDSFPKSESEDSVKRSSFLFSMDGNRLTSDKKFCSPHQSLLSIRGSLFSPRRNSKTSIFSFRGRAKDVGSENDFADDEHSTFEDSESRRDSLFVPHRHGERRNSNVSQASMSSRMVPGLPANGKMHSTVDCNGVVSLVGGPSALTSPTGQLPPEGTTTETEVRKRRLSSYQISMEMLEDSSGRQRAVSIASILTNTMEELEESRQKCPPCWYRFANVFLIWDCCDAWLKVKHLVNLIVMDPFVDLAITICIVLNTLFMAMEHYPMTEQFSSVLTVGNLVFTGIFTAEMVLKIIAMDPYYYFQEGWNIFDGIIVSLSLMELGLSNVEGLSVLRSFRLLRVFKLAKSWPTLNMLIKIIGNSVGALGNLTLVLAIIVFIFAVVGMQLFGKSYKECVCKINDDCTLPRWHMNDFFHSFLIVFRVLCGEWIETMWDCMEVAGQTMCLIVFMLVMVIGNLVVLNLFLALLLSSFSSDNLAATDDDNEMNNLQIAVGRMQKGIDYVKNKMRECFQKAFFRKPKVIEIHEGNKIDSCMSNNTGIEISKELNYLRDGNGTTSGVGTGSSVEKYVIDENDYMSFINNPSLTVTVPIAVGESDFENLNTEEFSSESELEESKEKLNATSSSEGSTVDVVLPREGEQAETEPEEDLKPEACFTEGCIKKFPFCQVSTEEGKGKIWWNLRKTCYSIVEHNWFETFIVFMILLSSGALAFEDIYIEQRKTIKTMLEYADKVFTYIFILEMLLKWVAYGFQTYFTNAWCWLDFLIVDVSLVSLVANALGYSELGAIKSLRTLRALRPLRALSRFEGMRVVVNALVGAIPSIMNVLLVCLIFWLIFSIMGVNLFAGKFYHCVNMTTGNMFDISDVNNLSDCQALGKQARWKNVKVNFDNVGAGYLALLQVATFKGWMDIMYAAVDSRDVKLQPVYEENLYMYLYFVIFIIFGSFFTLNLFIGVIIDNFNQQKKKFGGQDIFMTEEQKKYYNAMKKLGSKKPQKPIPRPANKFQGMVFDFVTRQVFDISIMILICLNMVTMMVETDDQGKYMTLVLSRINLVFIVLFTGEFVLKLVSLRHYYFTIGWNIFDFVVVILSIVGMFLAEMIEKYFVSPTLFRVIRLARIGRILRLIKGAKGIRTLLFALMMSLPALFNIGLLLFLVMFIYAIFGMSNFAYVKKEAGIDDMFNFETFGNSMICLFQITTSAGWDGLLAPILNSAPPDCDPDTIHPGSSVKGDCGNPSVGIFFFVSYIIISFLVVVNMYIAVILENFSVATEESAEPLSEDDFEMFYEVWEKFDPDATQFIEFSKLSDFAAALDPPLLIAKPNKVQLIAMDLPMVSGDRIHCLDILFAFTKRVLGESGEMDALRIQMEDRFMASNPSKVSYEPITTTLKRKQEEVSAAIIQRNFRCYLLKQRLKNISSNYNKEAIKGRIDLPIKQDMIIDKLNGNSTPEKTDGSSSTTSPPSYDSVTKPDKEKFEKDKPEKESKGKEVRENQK

| Compound | IC50 [8] | IC50 [9] | IC50 [10] | other results |
| --- | --- | --- | --- | --- |
| NCC1(CC(=O)O)CCCCC1 [Gabapentin] |  |  |  | patients in whom it works [1]: 60% |
| NC1=N[C@H](O)[C@H]2[C@H]3O[C@]4(O)O[C@@H]([C@@H](O)[C@@]2(N1)[C@@H]4O)[C@]3(O)CO [TTX, tetrodotoxin] |  |  |  | IC50 [2]: 0.015 µM; IC50 [3]: 0.006 µM; IC50 [4]: > 50 µM; IC50 [5]: 1 µM; IC50 [6]: 0.01 µM; IC50 [7]: 0.01 µM |
| CC(C)N(Cc1ccccc1)C(=O)c1cnc(N2CCOCC2)nc1-c1cccc(/C=C/C(=O)O)c1 [compound 17] | > 10 µM | > 10 µM | > 10 µM |  |
| CC(C)N(Cc1ccc(N2CCCC2)cc1)C(=O)c1cnc(N2CCC3CCCCC3C2)nc1-c1ccccc1F (stereo not shown) [compound 137] | < 2 µM | > 10 µM | > 10 µM |  |
| O=C(c1cnc(N2CCSCC2)nc1-c1ccccc1F)N(Cc1ccc2c(c1)CCO2)C1CC1 [compound 30] | 2 to 10 µM | 2 to 10 µM | > 10 µM |  |
| CC(C)N(Cc1ccc(C(C)(C)C)cc1)C(=O)c1cnc(N2CCCCC2)nc1-c1ccccc1Cl [compound 119] | 2 to 10 µM | > 10 µM | > 10 µM |  |
| CC(C)N(Cc1cccc(O)c1)C(=O)c1cnc(N2CCOCC2)nc1-c1ccccc1F [compound 5] | 2 to 10 µM | > 10 µM | > 10 µM |  |
| COc1cccc(N(C(=O)c2cnc(N3CCCCC3)nc2-c2ccccc2Cl)C2CCCC2)c1 [compound 8] | 2 to 10 µM | 2 to 10 µM | > 10 µM |  |
| O=C(c1cnc(N2CCSCC2)nc1-c1ccccc1F)N(Cc1ccccc1)C1CCC1 [compound 80] | 2 to 10 µM | 2 to 10 µM | > 10 µM |  |
| COc1ccc(CN(C(=O)c2cnc(N3CCC4CCCCC4C3)nc2-c2ccccc2F)C2CC2)cc1 (stereo not shown) [compound 184] | 2 to 10 µM | > 10 µM | > 10 µM |  |
| O=C(c1cnc(N2CCOCC2)nc1-c1ccccc1F)N(Cc1ccc(F)cc1)C1CC1 [compound 128] | 2 to 10 µM | 2 to 10 µM | > 10 µM |  |
